Data as given in BindingDB's records for patent US9018255 (Instytut Chemii Organicznej Polskiej Akademii Nauk, 2015).

Target: T1, Thioredoxin (Homo sapiens, UniProt P10599)
T1 sequence (P10599 whole entry): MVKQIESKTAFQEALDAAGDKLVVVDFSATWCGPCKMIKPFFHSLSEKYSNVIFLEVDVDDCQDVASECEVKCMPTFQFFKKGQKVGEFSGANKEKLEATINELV
Assay: In vitro Assay
Conditions: pH 7.6
Protocol: The method of determining thioredoxin activity is based on the reduction of insulin by thioredoxin. Thioredoxin is reconstituted is by thioredoxin reductase, with NADPH. The resulting free thiol -SH groups react with 5,5′-dithiobis-2-nitrobenzoic acid (DTNB). The termination of the reaction results in the formation of a […]. […] The reaction was performed at 37° C. over 30 min. in a buffer containing 50 mM Tris-HCl and 20 mM EDTA at a pH of 7.6.

How did the IC50 turn out when `C=C(COC(=O)c1c(C(F)(F)F)cccc1C(F)(F)F)C(=O)NCc1ccccc1` [US9018255, 8a] was run?
Its IC50 is 8.6 µM.
